Source: ChEMBL document CHEMBL1145666, “Geriatrics photo quiz. Thoracic aortic aneurysm” (1983)
Converted amounts (≈) assume the structure as drawn.

Assays:
Format in all cases: functional
[1] = tested on: P388; test: Antitumor activity against mouse P388 cells; settings: read-out: ED50 (the source's name)
[2] = tested on: P388; test: In vivo antitumor activity against mouse P388 cells at 40 ug/kg relative to control
[3] = tested on: P388; test: In vivo antitumor activity against mouse P388 cells at 20 ug/kg relative to control

Row | SMILES | EC50 [1] | T/C [2] | T/C [3]
1 | C=C(C)[C@]12C[C@@H](C)[C@@]34OC5(CCCCCCC[C@H](C)[C@H]6[C@H](C)[C@H](OC(=O)c7ccccc7)[C@@](O)([C@H](O)[C@@]7(CO)O[C@H]7[C@H]3[C@H]1O5)[C@@H]64)O2 [PIMELEA FACTOR P2] | 0.79 ng/mL (≈ 1.24 nM) | 130 | 132
2 | C=C(C)[C@]12C[C@@H](C)[C@@]34O[C@](CCCCCCCCC)(O[C@@H]1[C@@H]3[C@@H]1O[C@]1(CO)[C@@H](O)[C@]1(O)C(=O)C(C)=C[C@H]14)O2 [SIMPLEXIN] | 5 ng/mL (≈ 9.39 nM) |  | 
